One data set concerns mice. As to the kind of experiment: Back model: intradermal nape injection, scratching. Type of data set: in vivo, mouse. The conditions noted are these: 0.01-1 mM, 10 μL. How it is done:
Behavioral Assessment for Scratching (Itch) and Wiping (Pain). Mice were shaved on the cheek or nape after a brief anesthesia with isoflurane. Before experiments, mice were habituated in small plastic chambers (14×18×12 cm) daily for two days. The room temperature and humidity remained stable for all the experiments. […] After the injection, the number of scratches in 60 min was counted. A scratch was counted when a mouse lifted its hind paw to scratch the shaved region and returned the paw to the floor or to the mouth. A bout of wiping was defined as a continuous wiping movement with a forepaw directing at the area of the injection area (Shimada and LaMotte, Pain 2008, 139, 681-687). Scratching and wiping behavior was videoed for 30 min or 60 min using Sony HDR-CX610 camera. The video was subsequently played back offline and the numbers of scratches and wipes were quantified in a blinded manner.

The target of another data set is T1, TRPV2 (Mus musculus, UniProt Q9WTR1).
T1 construct: expressed in transfected cells; host or cells: CHO cells (ATCC CRL-9096), plasmid pcDNA3.1-mTrpv2, a gift from Korea University
T1 sequence (Q9WTR1 1-756): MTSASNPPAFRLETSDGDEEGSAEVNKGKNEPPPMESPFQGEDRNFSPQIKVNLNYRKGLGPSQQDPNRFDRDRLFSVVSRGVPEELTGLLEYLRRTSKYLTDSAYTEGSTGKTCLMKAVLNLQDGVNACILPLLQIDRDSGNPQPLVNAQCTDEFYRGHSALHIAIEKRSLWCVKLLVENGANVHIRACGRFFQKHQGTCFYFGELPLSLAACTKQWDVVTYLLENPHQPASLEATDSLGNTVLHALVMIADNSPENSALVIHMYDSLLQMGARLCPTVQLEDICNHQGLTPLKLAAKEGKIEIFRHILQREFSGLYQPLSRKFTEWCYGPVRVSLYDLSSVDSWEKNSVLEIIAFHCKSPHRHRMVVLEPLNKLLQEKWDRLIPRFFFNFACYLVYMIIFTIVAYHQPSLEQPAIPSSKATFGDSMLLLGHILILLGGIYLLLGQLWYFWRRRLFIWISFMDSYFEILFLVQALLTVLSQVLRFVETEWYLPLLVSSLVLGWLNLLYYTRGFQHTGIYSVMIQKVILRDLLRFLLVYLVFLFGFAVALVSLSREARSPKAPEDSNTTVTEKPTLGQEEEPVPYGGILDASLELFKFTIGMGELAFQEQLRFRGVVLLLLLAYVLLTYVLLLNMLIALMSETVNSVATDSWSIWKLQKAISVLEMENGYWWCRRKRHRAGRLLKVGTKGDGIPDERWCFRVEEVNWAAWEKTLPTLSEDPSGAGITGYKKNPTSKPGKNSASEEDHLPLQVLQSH
Put plainly: Whole-cell patch clamp in CHO cells transfected with mouse Trpv2 cDNA. Type of data set: cell-based. The note with it: miR-711 10 μM; cannabidiol 100 μM. How it is done:
(§1) Constructs. The cDNAs of mouse pcDNA3.1-Trpa1, pcDNA3.1-Trpv1, pcDNA3.1-Trpv2, pcDNA3.1-Trpv3, and pcDNA3.1-Trpv4 were kindly provided Dr. Sun Work Hwang from Korea University. Mouse Trpa1 cDNA was subcloned into pCGN-HA backbone (Addgene) using In-Fusion HD Cloning Kit (Clontech Laboratories, CA). Q5 Site-Directed Mutagenesis Kit was used to generate mTrpa1 mutant (M1-M13) based on pCGN-mTrpa1.
(§2) Cell Culture and Transfection. CD4^+ Myla cell line was cultured in RPMI 1640 media (GIBCO), supplemented with 2 mM Glutamine (GIBCO), 100 U/mL IL-2 (Sigma), 100 U/mL IL-4 (Sigma), and 10% human AB serum (Sigma). HuT 102 cell line was cultured in RPMI 1640 supplemented with pyruvate, HEPES, and 10% (v/v) fetal bovine serum (HyClone). HEK293-hTRPA1 stable cell line was cultured in MEM (GIBCO) containing 2 mM Glutamine, 4 μg/mL Blasticidin, 10% FBS (v/v). B16 and CHO cells were cultured in high glucose (4.5 g/L) Dulbecco's Modified Eagle's Medium (GIBCO) containing 10% (v/v) fetal bovine serum (GIBCO). Culture media were supplemented with 50 units/mL of penicillin and 50 μg/mL streptomycin, and cultures were maintained with 5% CO2 in 37° C. incubator. Transfection (2 μg cDNA) was performed with Lipofectamine™ 2000 Reagent (Invitrogen) at 80% confluency and the transfected cells were cultured in the same media for 48 hr before electrophysiological and biochemical studies. […]
(The patch-clamp technique gives a direct electrical read-out from membranes.)

Another data set deals with T2, TRPV4 (Mus musculus, UniProt Q9EPK8).
T2 construct: expressed in transfected cells; host or cells: CHO cells (ATCC CRL-9096), plasmid pcDNA3.1-mTrpv4, a gift from Korea University
T2 sequence (Q9EPK8 whole entry): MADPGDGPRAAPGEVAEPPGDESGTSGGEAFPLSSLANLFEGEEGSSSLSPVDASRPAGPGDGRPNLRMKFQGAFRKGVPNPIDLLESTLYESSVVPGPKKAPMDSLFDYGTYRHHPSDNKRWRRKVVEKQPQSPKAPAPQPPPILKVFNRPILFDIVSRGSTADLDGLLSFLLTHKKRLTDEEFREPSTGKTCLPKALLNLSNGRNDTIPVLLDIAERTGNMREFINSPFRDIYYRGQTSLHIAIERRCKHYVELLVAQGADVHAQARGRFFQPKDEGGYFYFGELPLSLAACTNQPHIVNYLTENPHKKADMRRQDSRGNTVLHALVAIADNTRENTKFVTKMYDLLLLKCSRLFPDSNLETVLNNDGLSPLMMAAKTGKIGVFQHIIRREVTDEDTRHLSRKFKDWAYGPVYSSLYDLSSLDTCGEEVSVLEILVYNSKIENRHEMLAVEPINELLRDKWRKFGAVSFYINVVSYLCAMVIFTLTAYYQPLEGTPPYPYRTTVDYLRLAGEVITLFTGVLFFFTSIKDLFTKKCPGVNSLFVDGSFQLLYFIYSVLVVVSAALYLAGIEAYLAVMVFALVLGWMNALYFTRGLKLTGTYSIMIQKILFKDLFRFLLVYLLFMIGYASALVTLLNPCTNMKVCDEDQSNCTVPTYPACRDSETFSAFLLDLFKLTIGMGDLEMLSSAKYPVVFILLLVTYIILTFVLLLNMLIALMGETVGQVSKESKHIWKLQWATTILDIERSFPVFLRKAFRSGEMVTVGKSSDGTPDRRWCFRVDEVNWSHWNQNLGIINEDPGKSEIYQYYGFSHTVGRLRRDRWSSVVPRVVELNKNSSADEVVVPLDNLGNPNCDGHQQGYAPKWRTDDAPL
As to the kind of experiment: Whole-cell patch clamp in CHO cells transfected with mouse Trpv4 cDNA. Type of data set: cell-based. The conditions noted are these: miR-711 10 μM; GSK1016790A 1 μM. How it is done: as §1, §2

Data set [1] has as its target T3, mTRPA1 mutants (M1-M13) (Mus musculus, UniProt Q8BLA8, L939A/P937A/Y936A).
T3 construct: HA; expressed in transfected cells; host or cells: CHO cells (ATCC CRL-9096), transient transfection
As to the kind of experiment: Whole-cell patch clamp in CHO cells transfected with mutant mTrpa1 cDNAs (M1-M13). Format: cell-based. The note with it: M13, triple mutations (Y936, P937, and L939). How it is done: as §1
(§3) Cell Culture and Transfection. CD4^+ Myla cell line was cultured in RPMI 1640 media (GIBCO), supplemented with 2 mM Glutamine (GIBCO), 100 U/mL IL-2 (Sigma), 100 U/mL IL-4 (Sigma), and 10% human AB serum (Sigma). HuT 102 cell line was cultured in RPMI 1640 supplemented with pyruvate, HEPES, and 10% (v/v) fetal bovine serum (HyClone). HEK293-hTRPA1 stable cell line was cultured in MEM (GIBCO) containing 2 mM Glutamine, 4 μg/mL Blasticidin, 10% FBS (v/v). B16 and CHO cells were cultured in high glucose (4.5 g/L) Dulbecco's Modified Eagle's Medium (GIBCO) containing 10% (v/v) fetal bovine serum (GIBCO). Culture media were supplemented with 50 units/mL of penicillin and 50 μg/mL streptomycin, and cultures were maintained with 5% CO2 in 37° C. incubator. Transfection (2 μg cDNA) was performed with Lipofectamine™ 2000 Reagent (Invitrogen) at 80% confluency and the transfected cells were cultured in the same media for 48 hr before electrophysiological and biochemical studies.
(§4) Whole-Cell Patch Clamp Recordings in HEK293 Cells, CHO Cells, and DRG Neurons. Whole-cell patch clamp recordings were performed at room temperature using an Axopatch-200B amplifier (Axon Instruments) with a Digidata 1440B (Axon Instruments). In this study, we only examined small-diameter mouse DRG neurons (<25 μM) and small-diameter human DRG neurons (<55 μM). The patch pipettes were pulled from borosilicate capillaries (World Precision Instruments) using a P-97 Flaming/Brown micropipette puller (Sutter Instrument). Pipette resistance was 4-6 MΩ for whole-cell and outside-out recording. For inward current recordings in mouse and human DRG neurons, HEK293 cells, and CHO cells, the internal solution contains (in mM): 140 CsCl, 10 EGTA, 10 HEPES, and 2 Mg-ATP, adjusted to pH 7.3 with CsOH. Whole cell recordings were performed in an extracellular solution that contains (in mM): 140 NaCl, 5 KCl, 2 MgCl2, 10 HEPES, and 10 glucose, adjusted to pH 7.4 with NaOH and osmolarity to 300-310 mOsm. […] Action potential recordings were performed in small-diameter DRG neurons, with the following solutions: i) internal pipette solution contains: 126 mM K-gluconate, 10 mM NaCl, 1 mM MgCl2, 10 mM EGTA, 10 mM HEPES and 2 mM Na-ATP, adjusted to pH 7.4 with KOH and osmolarity to 295-300 mOsm), and ii) extracellular solution contains: 140 mM NaCl, 5 mM KCl, 2 mM MgCl2, 2 mM CaCl2, 10 mM HEPES, 10 mM glucose, adjusted to pH 7.4 with KOH.

The target of data set [2] is T4, mTRPA1 mutants (M1-M13) (Mus musculus, UniProt Q8BLA8, P937A).
T4 construct: HA; expressed in transfected cells; host or cells: CHO cells (ATCC CRL-9096), transient transfection
T4 sequence (Q8BLA8 whole entry P937A): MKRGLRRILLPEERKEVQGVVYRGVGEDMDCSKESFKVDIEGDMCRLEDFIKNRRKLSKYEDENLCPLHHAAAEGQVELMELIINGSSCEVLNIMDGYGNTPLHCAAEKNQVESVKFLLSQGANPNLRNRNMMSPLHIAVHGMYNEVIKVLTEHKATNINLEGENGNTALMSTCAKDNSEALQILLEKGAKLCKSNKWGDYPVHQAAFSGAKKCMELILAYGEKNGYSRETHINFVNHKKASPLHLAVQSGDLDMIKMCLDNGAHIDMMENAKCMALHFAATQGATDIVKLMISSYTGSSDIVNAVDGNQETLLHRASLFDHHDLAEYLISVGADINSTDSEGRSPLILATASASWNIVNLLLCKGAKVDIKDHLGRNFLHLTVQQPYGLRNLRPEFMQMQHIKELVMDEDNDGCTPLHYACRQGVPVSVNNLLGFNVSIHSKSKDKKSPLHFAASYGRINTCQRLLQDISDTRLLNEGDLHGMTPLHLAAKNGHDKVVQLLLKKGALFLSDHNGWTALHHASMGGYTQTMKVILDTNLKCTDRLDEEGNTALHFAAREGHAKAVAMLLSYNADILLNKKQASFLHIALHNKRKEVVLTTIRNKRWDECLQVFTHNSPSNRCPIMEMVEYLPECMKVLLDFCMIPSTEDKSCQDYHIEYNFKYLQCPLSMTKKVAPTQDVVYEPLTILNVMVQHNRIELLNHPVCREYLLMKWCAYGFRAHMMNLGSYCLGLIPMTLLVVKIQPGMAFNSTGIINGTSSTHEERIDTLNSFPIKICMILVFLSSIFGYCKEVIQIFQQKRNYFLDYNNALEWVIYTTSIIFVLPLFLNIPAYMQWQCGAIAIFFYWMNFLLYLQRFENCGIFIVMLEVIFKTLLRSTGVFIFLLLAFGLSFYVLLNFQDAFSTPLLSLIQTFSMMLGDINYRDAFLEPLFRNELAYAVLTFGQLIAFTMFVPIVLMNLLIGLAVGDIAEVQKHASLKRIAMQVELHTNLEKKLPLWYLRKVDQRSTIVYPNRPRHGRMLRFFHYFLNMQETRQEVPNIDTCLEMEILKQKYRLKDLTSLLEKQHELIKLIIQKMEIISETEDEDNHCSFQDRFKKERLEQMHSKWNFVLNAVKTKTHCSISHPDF
The description is as above. The note with it: M11, single residue mutation of mP937. Format: cell-based. How it is done: as §1, §3, §4

T3 sequence (Q8BLA8 whole entry Y936A/P937A/L939A): as the sequence (Q8BLA8 whole entry P937A) above, with Y936A, L939A counted along it

In the case of “miR-711: mmu-miR-711: gggacccggggagagauguaag (SEQ ID NO: 5) (GGGACCCGGGGAGAGAUGUAAG; chemistry not given here)”, the “scratching after intradermal injection on the nape of neck” value in the data set on mice is listed as “dose-dependent scratching”. Also, the inward currents entry with TRPV2 and with TRPV4 was “failed to trigger inward currents” each time. In the data set with mTRPA1 mutants (M1-M13) [1], the current in mutant result was “further reduction”. Also, the “evoked currents in mutant” value with mTRPA1 mutants (M1-M13) [2] is “markedly reduced”.

These data come from US20210283163A1, “COMPOSITIONS AND METHODS FOR THE TREATMENT OF ACUTE AND CHRONIC PRURITIS” (Duke University, priority 2018, published 2021).
